Measured values taken from US10407466B2 (Apellis Pharmaceuticals, Inc., priority 2005, dated 2019).
Like-named read-outs stand apart in the source and are kept apart here. Marks after values point to notes of the source that are not given here. Bridge positions count the residues as written; N and C are the ends. Square brackets hold non-standard residues; d marks the D form. 2Nal = N[C@@H](Cc1ccc2ccccc2c1)C(=O)O

Assays:
[1] = Half-life in vitro in the vitreous; assay type: in vitro ADME
Method: The inventors' calculations establish, for the first time, the feasibility of substantially inhibiting C3 activation at levels at or above those expected to be present in the vitreous of a subject with wet ARMD by sustained intravitreal delivery of amounts as little as 5 μg/day of a therapeutic agent, which amounts may, according to the invention, be delivered by intravitreal implant technology over prolonged periods of time (as described further below). The inventors' calculations also establish, for the first time, the feasibility of substantially inhibiting C3 activation at levels at or above those expected to be present in the vitreous of a subject with dry ARMD by sustained intravitreal delivery of amounts as low as 2 μg/day of a therapeutic agent, which amounts may be delivered over prolonged periods of time by intravitreal implant technology according to the present invention.

[2] = tested on: choroidal neovascularization (CNV) in C57BL/6 mice; test: Laser-induced CNV in a mouse model, intravitreal injection; assay type: in vivo
Description: C57BL/6 mice (The Jackson Laboratory) were anesthetized with a mixture of ketamine/xylazine (8:1) and the pupils were dilated with a single drop of 1% tropicamide. Krypton red laser photocoagulation (50-μm spot size, 0.05 s duration, 250 mW) will be used to generate laser spots in surrounding the optic nerve by using a hand-held coverslip as a contact lens. Formation of a bubble at the laser spot indicated rupture of Bruch's membrane. Multiple laser spots were generated in each eye.
Different groups of mice were injected with different quantities of this molecule or of mouse albumin (as a control) to determine the effect of dosage on the efficacy and toxicity of VCP. Briefly, after anesthesia and dilation of the pupil, the anterior chamber was entered via the limbus with a 28-gauge needle to decompress the eye. Under an operating microscope, which allows visualization of the retina, a 32-gauge (blunt) needle was passed through a scleral incision, just behind the limbus, into the vitreous cavity.
Seven days after CNV induction incidence of CNV was determined. Briefly, the mice were perfused with a FITC-dextran (Sigma-Aldrich) solution just prior to sacrifice. After the eyes were excised and fixed for 1 h in 10% phosphate-buffered formalin, RPE-choroid-scleral flat mounts were prepared as follows. The cornea and the lens were removed and the neurosensory retina carefully dissected from the eyecup. Five radial cuts were from the edge of the eyecup to the equator; the sclera-choroidretinal pigment epithelium (RPE) complex was flat-mounted, with the sclera facing down, on a glass slide in Aquamount. The flat mounts were stained with an anti-elastin specific monoclonal antibody (Sigma-Aldrich) and then with a CY3-conjugated secondary antibody (Sigma-Aldrich) at a suitable concentration, e.g., at a 1/200 dilution of a 1.0 mg/ml stock solution. Mounts were observed under confocal microscopy (LSM510, Zeiss). The prominent neovascular growth stained green whereas the underlying elastin in the Bruch's membrane stained red within a laser spot. Images were analyzed with the image analysis software AxioVision (Zeiss). The amount of CNV was determined by measuring the total green-fluorescent surface area in each picture. A mean green-fluorescent area was obtained for the various groups and compared using student t-test for comparisons between groups and ANOVA for comparison among multiple groups. […] Deposition of a variety of different complement components is also measured using immunological techniques and/or RT-PCR.
Seven days after CNV induction, incidence of CNV was determined. Just prior to sacrifice, the mice were perfused with a FITC-dextran (Sigma-Aldrich) solution. After the eyes were excised and fixed in 10% phosphate-buffered formalin, RPE-choroid-scleral flat mounts were prepared and stained with an anti-elastin specific monoclonal antibody (Sigma-Aldrich) and then with a CY3-conjugated secondary antibody (Sigma-Aldrich). Mounts were observed under confocal microscopy (LSM510, Zeiss). The prominent neovascular growth stained green whereas the underlying elastin in the Bruch's membrane stained red within a laser spot. […] Images were analyzed with the image analysis software AxioVision (Zeiss). The amount of CNV was determined by measuring the total green-fluorescent surface area in each picture. A mean green-fluorescent area was obtained for the various groups and compared using student t-test for comparisons between groups and ANOVA for comparison among multiple groups. Results are described in Table 2 and in the graph in FIG. 4.

non-primate C3 = settings: reported; cited from earlier work
[3] = in vivo; cited from earlier work

CC[C@H](C)[C@H](NC(C)=O)C(=O)N[C@H]1CSSC[C@@H](C(=O)N[C@H](C(N)=O)[C@@H](C)O)NC(=O)[C@H](CCCNC(=N)N)NC(=O)[C@H](Cc2cnc[nH]2)NC(=O)[C@H](C)NC(=O)CNC(=O)[C@H](Cc2c[nH]c3ccccc23)NC(=O)[C@H](CC(=O)O)NC(=O)[C@H](CCC(N)=O)NC(=O)[C@H](Cc2cn(C)c3ccccc23)NC(=O)[C@H](C(C)C)NC1=O [Ac-V4(1-MeW)/H9A]
half-life [1]: ~6.9 h

CC[C@H](C)[C@H](N)C(=O)N[C@H]1CSSC[C@@H](C(=O)N[C@H](C(N)=O)[C@@H](C)O)NC(=O)[C@H](CCCN=C(N)N)NC(=O)[C@H](Cc2cnc[nH]2)NC(=O)[C@H](Cc2cnc[nH]2)NC(=O)CNC(=O)[C@H](Cc2c[nH]c3ccccc23)NC(=O)[C@H](CC(=O)O)NC(=O)[C@H](CCC(N)=O)NC(=O)[C@H](C(C)C)NC(=O)[C@H](C(C)C)NC1=O [compstatin]
Mean Difference (I-J), FldAreaGreen ([2]; I = Compstatin 30 ug, J = VCP 30 ug, day 7): −317.4
Mean Difference (I-J), FldAreaGreen ([2]; I = Mouse Albumin Control, J = test agent 30 ug/eye, day 7): 3286*
Mean Difference (I-J), FldAreaGreen ([2]; I = No-treatment control, J = test agent 30 ug/eye, green-fluorescent CNV area, day 7, Tamhane): 5195*
Mean Difference (I-J), FldAreaGreen ([2]; I = test agent 30 ug/eye, J = Mouse Albumin Control, day 7): −3286*
Mean Difference (I-J), FldAreaGreen ([2]; I = test agent 30 ug/eye, J = No-treatment control, day 7): −5195*
Mean Difference (I-J), FldAreaGreen ([2]; I = test agent 30 ug/eye, J = VCP 10 ug, day 7): −5862*
affinity for non-primate C3 compared with human or non-human primate C3 (non-primate C3): lower
half-life [3]: < 0.25 h

Ac-ICV(2-Nal)QDWGAHRCT-CONH2 (Ac-ICV[2Nal]QDWGAHRCT-NH2; disulfide 2-12 (inferred)) [Ac-V4(2-Nal)/H9A]
mean area of CNV relative to either no treatment or administration of albumin ([2]; 30 μg intravitreal, 24 hrs after laser induction, seven days after CNV induction): statistically significant reduction
effectiveness compared with VCP on a μg basis ([2]; 30 μg/eye, difference not statistically significant at these sample sizes): somewhat more effective than VCP
development of CNV in an animal model ([2]; summary of Example 1): effective in significantly inhibiting the development of CNV
